Test results taken from patent US8039430B2 (University of Wollongong, priority 2005, dated 2011).
≈ marks a conversion by molar mass, not a printed value. Like-named read-outs stand apart in the source and are kept apart here.

How the values were obtained:
[1] = tested on: Staphylococcus aureus strain ATCC 6538P; test: Antibacterial screening (MIC) of compounds of Example 2, S. aureus, Mueller-Hinton broth; format: cell-based; settings: for MIC: Staphylococcus aureus, ATCC6538P
Method: Antibacterial Screening Methodology for Compounds of Example 2
(§1) • All assays used the Staphylococcus aureus strain ATCC 6538P. • Assays described in Chapter 5 additionally used the vancomycin-resistant enterococci and vancomycin-sensitive enterococci strains Ef243, Ef449, Ef820 and Ef487. Culture Media • Mueller-Hinton Broth Medium (MHB): MHB (Oxoid CM405) was prepared with final concentrations of […] MgCl2 and 2 μg/mL CaCl2. Culture medium was pre-warmed for approximately 2-3 h at 37° C. before use. • Mueller-Hinton Agar Medium (MHA): MMB containing 1.5% Agar (Merck Agar 1.01614). Maintenance of Bacteria • From a thawed cryovial, the bacteria was streaked onto MHA and the plate incubated overnight at 37° C. • From this plate, 10 cryovials were prepared by looping several colonies into 0.5 mL of 20% glycerol solution. The cryovials were immediately stored at −140° C. Preparation of Seed Cultures • A cryovial was removed from −140° C. storage and thawed at room temperature. • An MHA plate was streaked with a loopful of bacterial suspension and incubated overnight at 37° C. to create a parent plate (P1). • A daughter plate (D1) was streaked from the parent plate and incubated overnight at 37° C. […] The second parent plate (P2) was used to generate two additional daughter plates using the procedure outlined above before being discarded. • Cryovials were used twice to prepare parent plates (P1 and P2) before being discarded. […] A vancomycin control set (triplicate) and a compound negative control set (triplicate) were also included on each plate (FIG. 1). • The inoculated culture medium was incubated at 37° C. for 30 min, with shaking at 130 rpm. • Using a multichannel pipette, the contents of the first row were mixed before 50 μL was transferred to the second row. The pipette tips were changed and the process repeated by 50 μL of the mixed broth solutions in the second row being transferred to the third row. This process was repeated until the last row contained either the diluted test compound or a control (vancomycin or compound-negative). […] Antibacterial Testing of Compounds of Example 2 Introduction
(§2) The specific testing procedures and protocols are outlined in the section “Antibacterial Screening Methodology for the Compounds of Example 2”.
The antibacterial activity results are measured by minimum inhibitory concentration (MIC), which is the lowest concentration of compound necessary to prevent bacterial growth.

[2] = tested on: #449 E. faecium van B ST17; test: Antibacterial assay (MIC), VRE strain #449, Enterococossel Broth, Example 1; format: cell-based, Enterococcus faecium; settings: Enterococcus faecium, VRE, 24 h, read-out: 449 (minimum inhibitory concentration)
How it was run: (§3)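 Broth microdilution in Enterococossel Broth, triplicate twofold dilutions from 125 to 0.98 ug/ml, inoculated with 1/1000-diluted overnight E. faecium van B culture. Incubated 24 h at 37° C with slow rotation. MIC read as lowest concentration without pellet or black medium; first-row DMSO 2.5%.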

[3] = tested on: #987 E. faecium van B ST39; test: Antibacterial assay (MIC), VRE strain #987, Enterococossel Broth, Example 1; format: cell-based, Enterococcus faecium; settings: Enterococcus faecium, VRE, 24 h, read-out: 987 (minimum inhibitory concentration)
How it was run: (§4)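 Broth microdilution MIC vs E. faecium VRE strains grown in Enterococossel broth, inoculum 1/1000 of overnight culture; compounds tested in triplicate at 125–0.98 ug/ml (2-fold), top-well DMSO 2.5%. Plates incubated 24 h at 37 °C; MIC read as clear well, no pellet and no black colouring of medium.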

[4] = tested on: Staphylococcus aureus (ATCC 6538P); test: Antibacterial assay (MIC), Staphylococcus aureus ATCC 6538P, Luria Broth, Example 1; format: cell-based; settings: Staphylococcus aureus, ATCC6538P, 24 h, read-out: Sa (minimum inhibitory concentration)
How it was run: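 Broth microdilution in Luria Broth, 2-fold series from 125 to 0.98 ug/ml in triplicate, with 1/1000-diluted overnight culture; up to 2.5% DMSO. Incubated 24 hrs at 37° C with slow rotation; MIC read as lowest concentration giving a clear well without bacterial pellet.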

E.f243 = test: Antibacterial screening (MIC) of compounds of Example 2, E.f243; format: cell-based, Enterococcus faecium
Method: as §1, §2
(§5) Vancomycin was used as the standard/control.

[5] = tested on: E. faecium (VRE, vanA genes); settings: typical for VRE E. faecium in hospitals; cited from earlier work
E.f820 = test: Antibacterial screening (MIC) of compounds of Example 2, E.f820; format: cell-based, Enterrococci faecium; settings: for Antibacterial activity μg/mL, E.f820: Example 2 compounds, fully vancomycin-resistant strain E.f820
Method: as §1, §2, §5

E.f987 = test: Antibacterial screening (MIC) of compounds of Example 2, E.f987; format: cell-based, Enterococcus faecium; settings: for Antibacterial activity μg/mL, E.f987: Example 2 compounds, enterococci strain E.f987
[6] = tested on: #820 E. faecium van A ST17; test: Antibacterial assay (MIC), VRE strain #820, Enterococossel Broth, Example 1; format: cell-based, Enterococcus faecium; settings: Enterococcus faecium, VRE, 24 h, read-out: 820 (minimum inhibitory concentration)
How it was run: as §4

E.f449 = test: Antibacterial screening (MIC) of compounds of Example 2, E.f449; format: cell-based, Enterococcus faecium
Method: as §1, §2, §5

[7] = tested on: #243 E. faecium van B ST17; test: Antibacterial assay (MIC), VRE strain #243, Enterococossel Broth, Example 1; format: cell-based, Enterococcus faecium; settings: Enterococcus faecium, VRE, 24 h, read-out: 243 (minimum inhibitory concentration)
How it was run: as §3

MRSA isolates = settings: 43 MRSA isolates from adults with community respiratory infections; cited from earlier work
[8] = tested on: strains of MRSA which have intermediate resistance to glycopeptides; settings: cited from earlier work
HIV integrase enzyme = molecular target: T1, HIV integrase enzyme (Human immunodeficiency virus type 1 group M subtype B, UniProt P04585); test: Cross testing of antibacterial compounds for ability to inhibit the HIV integrase enzyme; format: biochemical; settings: Example 2 compounds; compared with lead 88
T1 construct: against the HIV integrase enzyme
Method: The results for the screening of the four target molecules 165-168 against the HIV integrase enzyme yielded some encouraging results which supported the proposed mechanism of binding in the active binding trench of the HIV integrase enzyme. The testing procedure for the four target compounds differed from the original screening protocols employed. The original screening measured inhibition against the 3′ processing function of the enzyme at the fixed concentration of 50 μg/mL, whereas the four target molecules were tested in an assay adapted from a literature procedure,^107 which measures inhibition against the 3′ strand transfer function of the enzyme. This allows a result to be obtained as an inhibition constant (IC50) concentration, which is the standard measurement of inhibition within the literature. Along with the four target molecules, 88 was also re-tested in the 3′ strand transfer assay to determine the IC50 for direct comparison with the literature.
After these compounds and the computer modelling studies had become established, all compounds that were sent for screening in the antibacterial assay were then also cross tested for their ability to inhibit the HIV integrase enzyme.

[9] = tested on: E. faecium isolate (VanD-type); settings: VanD-type E. faecium isolate from the United States, constitutively resistant; cited from earlier work
S. aureus = settings: when penicillin was introduced in mid-1940s; cited from earlier work

Molecule: CN[C@H](CC(C)C)C(=O)N[C@H]1C(=O)N[C@@H](CC(N)=O)C(=O)N[C@H]2C(=O)N[C@H]3C(=O)N[C@H](C(=O)N[C@H](C(=O)O)c4cc(O)cc(O)c4-c4cc3ccc4O)[C@H](O)c3ccc(c(Cl)c3)Oc3cc2cc(c3O[C@@H]2O[C@H](CO)[C@@H](O)[C@H](O)[C@H]2O[C@H]2C[C@](C)(N)[C@H](O)[C@H](C)O2)Oc2ccc(cc2Cl)[C@H]1O [Vancomycin, vancomycin, reference compound]
- MIC ([1]; 18 h, read-out: Antibacterial activity (MIC μg/mL)): 1.25 to 2.5 µg/mL (≈ 0.863 to 1.73 µM)
- MIC ([1]; read-out: Antibacterial activity μg/mL, S.a): 1.95 µg/mL (≈ 1.35 µM)
- MIC [2]: 15.7 to 62.5 µg/mL (≈ 10.8 to 43.1 µM)
- MIC [3]: < 0.98 µg/mL
- MIC [4]: 0.99 to 15.6 µg/mL (≈ 0.683 to 10.8 µM)
- MIC (E.f243; Enterococcus faecium, read-out: Antibacterial activity μg/mL, E.f243): 1.95 µg/mL (≈ 1.35 µM)
- minimum inhibitory concentrations (MICs) [5]: > 128 µg/mL
- Antibacterial activity μg/mL, E.f820 (E.f820): >125 µg/mL
- MIC (E.f820; read-out: Antibacterial activity μg/mL, E.f820): > 125 µg/mL
- MIC (E.f987; Enterococcus faecium, read-out: Antibacterial activity μg/mL, E.f987): < 0.98 µg/mL
- Antibacterial activity μg/mL, E.f987 (E.f987): <0.98 µg/mL
- MIC [6]: > 62.6 µg/mL
- MIC (E.f449; Enterococcus faecium, read-out: Antibacterial activity μg/mL, E.f449): 62.5 µg/mL (≈ 43.1 µM)
- MIC [7]: < 0.98 µg/mL
- susceptibility rates (MRSA isolates): 100%

Molecule: Oc1cc(Cl)ccc1Oc1ccc(Cl)cc1Cl [triclosan]
- minimal bactericidal concns. (MBCs), increased value ([8]; MRSA with intermediate resistance to glycopeptides, decreased susceptibility to biocides): 3.12 mg 1-1
- minimal bactericidal concns. (MBCs), starting value ([8]; value from which the MBC increased): 0.002 mg 1-1

Molecule: CCCOc1ccc2ccccc2c1-c1c(OCC(=O)N[C@H](CCCN)C(=O)Nc2cccc(C(=O)NO)c2)ccc2ccccc12.Cl [Compound 163]
- Antibacterial activity μg/mL, S.a ([1]; Example 2 compounds (linear cationic peptides), S. aureus, vancomycin-susceptible strain): 15.6 µg/mL
- Antibacterial activity μg/mL, E.f243 (E.f243; Example 2 compounds, enterococci strain E.f243): >125 µg/mL
- ability to inhibit the HIV integrase enzyme (in words) (HIV integrase enzyme): almost as active as the original lead 88
- Antibacterial activity μg/mL, E.f820 (E.f820): >125 µg/mL
- Antibacterial activity μg/mL, E.f987 (E.f987): >125 µg/mL
- Antibacterial activity μg/mL, E.f449 (E.f449; Example 2 compounds, enterococci strain E.f449): >125 µg/mL

Molecule: teicoplanin
- MIC [9]: 4 µg/mL
- minimum inhibitory concentrations (MICs) [5]: > 16 µg/mL

Molecule: C=CCOc1ccc2ccccc2c1-c1c(OCC(=O)N[C@H](CCCNC(=N)N)C(=O)Nc2cccc(C(=O)NO)c2)ccc2ccccc12.Cl
- melting point: 158 to 160 °C

Molecule: penicillin
- susceptible S. aureus (S. aureus): ~94%

Molecule: CC[C@H]1OC(=O)[C@H](C)[C@@H](O[C@H]2C[C@@](C)(OC)[C@@H](O)[C@H](C)O2)[C@H](C)[C@@H](O[C@@H]2O[C@H](C)C[C@H](N(C)C)[C@H]2O)[C@](C)(O)C[C@@H](C)C(=O)[C@H](C)[C@@H](O)[C@]1(C)O [erythromycin]
- susceptibility rates (MRSA isolates): 12%
